The results in this text go back to PubChem BioAssay AID1117332.

Activity calls are given as the source filed them. How the calls were made is not given here.

The experiment relates to HCT116 viability, CellTiter-Glo ATP luminescence. The experiment in a line: cytotoxicity toward HCT116 cells – cell-based, CellTiter-Glo luminescence, IC50, dose response (AID 1117332).
For `CC(=O)[O][Hg][c]1ccccc1`, the IC50 is 2800 nM. Under `O=C1[O][Bi][O]c2ccccc21` stands > 20000 nM (inactive); under `OCCN1CCN(CC/C=C2/c3ccccc3Sc3ccc(C(F)(F)F)cc32)CC1`, 4580 nM; under `Cc1ccc([N+](=O)[O-])[c]2c1[O][Hg]2`, 2830 nM. Take `CCCCCCCCCCCCCC[N+](C)(C)C`: the IC50 was 2290 nM.

Turning to `O=C(O)C1(C(=O)O)CCC1.[NH2-].[NH2-].[Pt+2]`, the IC50 was > 20000 nM (inactive).

As usually defined, the IC50 is the concentration at which inhibition is half-maximal.
